In general, Ki refers to a dissociation constant, usually derived from enzyme kinetics or from competition with a known ligand. As a reminder, the EC50 is the concentration that produces a half-maximal response. One may read the Emax as the maximal effect, on the per cent scale that the assay sets.

In ChEMBL document CHEMBL1144618, “Convenient synthesis and in vitro pharmacological activity of 2-thioanalogs of salvinorins A and B” (Bioorg Med Chem Lett, 2007) one finds Ki, EC50 and Emax data, which are given here for three compounds.

Experiment [1] addresses Kappa-type opioid receptor (Rattus norvegicus, UniProt P34975). Nature of the experiment: Displacement of [3H]U-69593 from rat cloned KOR.
The target in experiment [2] is Kappa-type opioid receptor (Homo sapiens, UniProt P41145). Briefly: Activity at human kappa opioid receptor expressed in HEK293 cells as intracellular calcium mobilization. In kind it is functional, cell-based. Background: Calcium flux is commonly read through the fluorescence of an indicator in the cells.
Sequence of Kappa-type opioid receptor (Homo sapiens, UniProt P41145) (P41145 whole entry): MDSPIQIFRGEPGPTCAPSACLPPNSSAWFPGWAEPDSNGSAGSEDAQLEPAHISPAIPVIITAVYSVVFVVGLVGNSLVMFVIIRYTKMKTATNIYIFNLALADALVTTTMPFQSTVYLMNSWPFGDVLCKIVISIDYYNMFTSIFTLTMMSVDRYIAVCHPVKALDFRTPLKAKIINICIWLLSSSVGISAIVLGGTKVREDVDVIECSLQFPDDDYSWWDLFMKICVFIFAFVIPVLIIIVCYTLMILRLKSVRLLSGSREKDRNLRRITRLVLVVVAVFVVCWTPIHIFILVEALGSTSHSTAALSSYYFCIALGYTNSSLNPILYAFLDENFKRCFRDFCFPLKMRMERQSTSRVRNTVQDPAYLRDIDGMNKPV

Sequence of Kappa-type opioid receptor (Rattus norvegicus, UniProt P34975) (P34975 whole entry): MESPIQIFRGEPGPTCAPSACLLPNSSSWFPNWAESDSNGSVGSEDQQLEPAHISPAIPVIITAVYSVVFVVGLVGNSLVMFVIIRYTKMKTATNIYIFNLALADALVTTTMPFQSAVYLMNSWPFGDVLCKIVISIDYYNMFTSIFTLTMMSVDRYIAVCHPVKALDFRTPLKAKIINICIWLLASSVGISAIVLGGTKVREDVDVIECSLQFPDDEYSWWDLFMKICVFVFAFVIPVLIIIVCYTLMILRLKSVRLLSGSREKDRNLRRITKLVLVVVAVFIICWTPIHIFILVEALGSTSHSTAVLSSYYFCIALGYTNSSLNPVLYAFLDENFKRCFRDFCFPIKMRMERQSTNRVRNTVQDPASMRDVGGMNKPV

Consider `COC(=O)[C@@H]1C[C@@H](SC(C)=O)C(=O)[C@H]2[C@@]1(C)CC[C@H]1C(=O)O[C@H](c3ccoc3)C[C@]21C` [2-EPI-2-THIOSALVINORIN A], for which the inhibition constant (Ki) in experiment [1] was 151 nM. Further, in experiment [2], the EC50 is 123 nM and the maximal response (Emax) worked out at 106%.

Consider `COC(=O)[C@@H]1C[C@@H](S)C(=O)[C@H]2[C@@]1(C)CC[C@H]1C(=O)O[C@H](c3ccoc3)C[C@]21C` [2-EPI-2-THIOSALVINORIN B], for which the affinity in experiment [1] corresponds to a Ki of 546 nM. Further, in experiment [2], the EC50 is greater than 2000 nM and the Emax came out at 71%.

Regarding `COC(=O)[C@@H]1C[C@H](S)C(=O)[C@H]2[C@@]1(C)CC[C@H]1C(=O)O[C@H](c3ccoc3)C[C@]21C` [2-THIOSALVINORIN B], the Ki in experiment [1] stood at 54.5 nM. For the same compound, in experiment [2], the EC50 was 287 nM and the Emax is 89%.
